Measured values taken from the supplement of paper PMC10307832.

Key:
Experiment in all cases: relative viability (nuclei count vs DMSO), 5 days (fraction); higher = more cells survive
[1] = system: LCLC-97TM1
Procedure, shortened: (§1)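 Lung cancer cell lines in 1536-well plates were dosed by pin tool the day after seeding, either with one drug alone or with a fixed anchor-drug dose plus five library-drug doses (not always all listed) in √10 steps. After 5 days, cells were fixed and their nuclei stained in one step (final 0.05% Triton X-100, 1% formaldehyde, 1 ug/ml Hoechst), then counted on 4× images. Relative viability is the nuclei count in treated wells divided by that in vehicle wells. Values are medians of duplicate plates.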

[2] = system: NCI-H2085
Procedure, shortened: as §1

[3] = system: NCI-H322M
Procedure, shortened: as §1

[4] = system: LXF-289
Procedure, shortened: as §1

[5] = system: H3255
Procedure, shortened: as §1

[6] = system: EMC-BAC-2
Procedure, shortened: as §1

[7] = system: NCI-H2023
Procedure, shortened: as §1

[8] = system: SK-LU-1
Procedure, shortened: as §1

[9] = system: NCI-H2347
Procedure, shortened: as §1

[10] = system: EPLC-272H
Procedure, shortened: as §1

[11] = system: SW 1573
Procedure, shortened: as §1

[12] = system: NCI-H727
Procedure, shortened: as §1

[13] = system: NCI-H2126
Procedure, shortened: as §1

[14] = system: NCI-H1915
Procedure, shortened: as §1

[15] = system: NCI-H2009
Procedure, shortened: as §1

[16] = system: NCI-H1993
Procedure, shortened: as §1

[17] = system: NCI-H1563
Procedure, shortened: as §1

[18] = system: NCI-H647
Procedure, shortened: as §1

[19] = system: PC-14
Procedure, shortened: as §1

[20] = system: NCI-H661
Procedure, shortened: as §1

[21] = system: NCI-H1734
Procedure, shortened: as §1

[22] = system: HOP-62
Procedure, shortened: as §1

Which relative viability ([1]; first compound 0.03162 µM) does the source give for CCN(CC)CCCCNc1ncc2cc(-c3cc(OC)cc(OC)c3)c(NC(=O)NC(C)(C)C)nc2n1 + C[C@]1(O)C[C@@H](c2nc(-c3ccc4ccc(-c5ccccc5)nc4c3)c3c(N)nccn32)C1 [Linsitinib] (partner 1 µM) here?
The relative viability was 0.176.

And the relative viability ([1]; first compound 0.1 µM)?
The relative viability was 0.23.

What about the relative viability ([1]; first compound 0.3162 µM) of the same compound?
The relative viability was 0.199.

What about the relative viability ([1]; first compound 1 µM) of the same compound?
The relative viability was 0.216.

And the relative viability ([2]; first compound 0.01 µM)?
The relative viability was 0.977.

And the relative viability ([2]; first compound 0.03162 µM)?
The relative viability was 0.949.

And the relative viability ([2]; first compound 0.1 µM)?
Its relative viability is 1.07.

What about the relative viability ([2]; first compound 0.3162 µM) of the same compound?
Its relative viability is 0.918.

What about the relative viability ([2]; first compound 1 µM) of the same compound?
Its relative viability is 0.887.

And the relative viability ([3]; first compound 0.01 µM)?
Its relative viability is 0.99.

And the relative viability ([3]; first compound 0.03162 µM)?
The relative viability was 0.875.

What about the relative viability ([3]; first compound 0.1 µM) of the same compound?
Its relative viability is 0.938.

And the relative viability ([3]; first compound 0.3162 µM)?
Its relative viability is 0.982.

And the relative viability ([3]; first compound 1 µM)?
The relative viability was 0.891.

What about the relative viability ([4]; first compound 0.01 µM) of the same compound?
The relative viability was 0.974.

And the relative viability ([4]; first compound 0.03162 µM)?
The relative viability was 1.02.

And the relative viability ([4]; first compound 0.1 µM)?
The relative viability was 1.03.

And the relative viability ([4]; first compound 0.3162 µM)?
Its relative viability is 0.972.

And the relative viability ([4]; first compound 1 µM)?
Its relative viability is 0.843.

And the relative viability ([5]; first compound 0.01 µM)?
Its relative viability is 1.02.

And the relative viability ([5]; first compound 0.03162 µM)?
The relative viability was 1.04.

What about the relative viability ([5]; first compound 0.1 µM) of the same compound?
The relative viability was 0.986.

And the relative viability ([5]; first compound 0.3162 µM)?
Its relative viability is 1.06.

What about the relative viability ([5]; first compound 1 µM) of the same compound?
Its relative viability is 0.892.

What about the relative viability ([6]; first compound 0.01 µM) of the same compound?
The relative viability was 0.873.

What about the relative viability ([6]; first compound 0.03162 µM) of the same compound?
Its relative viability is 0.836.

What about the relative viability ([6]; first compound 0.1 µM) of the same compound?
The relative viability was 0.821.

And the relative viability ([6]; first compound 0.3162 µM)?
The relative viability was 0.838.

What about the relative viability ([6]; first compound 1 µM) of the same compound?
Its relative viability is 0.771.

And the relative viability ([7]; first compound 0.01 µM)?
Its relative viability is 0.716.

And the relative viability ([7]; first compound 0.03162 µM)?
The relative viability was 0.691.

And the relative viability ([7]; first compound 0.1 µM)?
Its relative viability is 0.636.

And the relative viability ([7]; first compound 0.3162 µM)?
Its relative viability is 0.708.

What about the relative viability ([7]; first compound 1 µM) of the same compound?
Its relative viability is 0.685.

And the relative viability ([8]; first compound 0.01 µM)?
The relative viability was 1.24.

What about the relative viability ([8]; first compound 0.03162 µM) of the same compound?
Its relative viability is 1.1.

What about the relative viability ([8]; first compound 0.1 µM) of the same compound?
The relative viability was 1.4.

What about the relative viability ([8]; first compound 0.3162 µM) of the same compound?
The relative viability was 1.49.

And the relative viability ([8]; first compound 1 µM)?
The relative viability was 0.988.

What about the relative viability ([9]; first compound 0.01 µM) of the same compound?
Its relative viability is 0.93.

And the relative viability ([9]; first compound 0.03162 µM)?
The relative viability was 0.999.

And the relative viability ([9]; first compound 0.1 µM)?
The relative viability was 0.916.

And the relative viability ([9]; first compound 0.3162 µM)?
Its relative viability is 1.05.

And the relative viability ([9]; first compound 1 µM)?
The relative viability was 0.889.

And the relative viability ([10]; first compound 0.01 µM)?
The relative viability was 1.26.

And the relative viability ([10]; first compound 0.1 µM)?
Its relative viability is 1.1.

And the relative viability ([10]; first compound 0.3162 µM)?
The relative viability was 1.32.

What about the relative viability ([10]; first compound 1 µM) of the same compound?
The relative viability was 1.17.

And the relative viability ([11]; first compound 0.01 µM)?
The relative viability was 0.811.

And the relative viability ([11]; first compound 0.03162 µM)?
Its relative viability is 0.785.

What about the relative viability ([11]; first compound 0.1 µM) of the same compound?
Its relative viability is 0.892.

And the relative viability ([11]; first compound 0.3162 µM)?
Its relative viability is 0.734.

What about the relative viability ([11]; first compound 1 µM) of the same compound?
The relative viability was 0.789.

And the relative viability ([12]; first compound 0.01 µM)?
The relative viability was 0.297.

And the relative viability ([12]; first compound 0.03162 µM)?
Its relative viability is 0.251.

What about the relative viability ([12]; first compound 0.1 µM) of the same compound?
The relative viability was 0.293.

What about the relative viability ([12]; first compound 0.3162 µM) of the same compound?
Its relative viability is 0.363.

What about the relative viability ([12]; first compound 1 µM) of the same compound?
The relative viability was 0.301.

And the relative viability ([13]; first compound 0.01 µM)?
Its relative viability is 0.725.

What about the relative viability ([13]; first compound 0.03162 µM) of the same compound?
The relative viability was 0.712.

What about the relative viability ([13]; first compound 0.1 µM) of the same compound?
The relative viability was 0.794.

What about the relative viability ([13]; first compound 0.3162 µM) of the same compound?
The relative viability was 0.674.

What about the relative viability ([13]; first compound 1 µM) of the same compound?
The relative viability was 0.708.

What about the relative viability ([14]; first compound 0.01 µM) of the same compound?
The relative viability was 1.11.

What about the relative viability ([14]; first compound 0.03162 µM) of the same compound?
Its relative viability is 1.12.

And the relative viability ([14]; first compound 0.1 µM)?
Its relative viability is 1.12.

And the relative viability ([14]; first compound 0.3162 µM)?
The relative viability was 1.1.

What about the relative viability ([14]; first compound 1 µM) of the same compound?
Its relative viability is 1.15.

And the relative viability ([15]; first compound 0.01 µM)?
Its relative viability is 1.29.

And the relative viability ([15]; first compound 0.03162 µM)?
The relative viability was 1.19.

What about the relative viability ([15]; first compound 0.1 µM) of the same compound?
Its relative viability is 1.23.

What about the relative viability ([15]; first compound 0.3162 µM) of the same compound?
Its relative viability is 1.26.

And the relative viability ([15]; first compound 1 µM)?
The relative viability was 1.21.

What about the relative viability ([16]; first compound 0.01 µM) of the same compound?
The relative viability was 0.763.

And the relative viability ([16]; first compound 0.03162 µM)?
Its relative viability is 0.807.

What about the relative viability ([16]; first compound 0.1 µM) of the same compound?
Its relative viability is 0.831.

And the relative viability ([16]; first compound 0.3162 µM)?
Its relative viability is 0.751.

What about the relative viability ([16]; first compound 1 µM) of the same compound?
Its relative viability is 0.731.

What about the relative viability ([17]; first compound 0.01 µM) of the same compound?
Its relative viability is 1.29.

And the relative viability ([17]; first compound 0.03162 µM)?
The relative viability was 1.34.

And the relative viability ([17]; first compound 0.1 µM)?
The relative viability was 1.13.

And the relative viability ([17]; first compound 0.3162 µM)?
Its relative viability is 1.09.

And the relative viability ([17]; first compound 1 µM)?
Its relative viability is 0.889.

What about the relative viability ([18]; first compound 0.01 µM) of the same compound?
Its relative viability is 1.31.

What about the relative viability ([18]; first compound 0.03162 µM) of the same compound?
Its relative viability is 1.09.

What about the relative viability ([18]; first compound 0.1 µM) of the same compound?
The relative viability was 1.75.

What about the relative viability ([18]; first compound 0.3162 µM) of the same compound?
Its relative viability is 1.52.

What about the relative viability ([18]; first compound 1 µM) of the same compound?
The relative viability was 1.

What about the relative viability ([19]; first compound 0.01 µM) of the same compound?
Its relative viability is 1.01.

And the relative viability ([19]; first compound 0.03162 µM)?
Its relative viability is 1.03.

What about the relative viability ([19]; first compound 0.1 µM) of the same compound?
Its relative viability is 1.02.

And the relative viability ([19]; first compound 0.3162 µM)?
Its relative viability is 1.09.

And the relative viability ([19]; first compound 1 µM)?
Its relative viability is 0.885.

And the relative viability ([20]; first compound 0.01 µM)?
Its relative viability is 0.568.

And the relative viability ([20]; first compound 0.03162 µM)?
Its relative viability is 0.45.

And the relative viability ([20]; first compound 0.1 µM)?
Its relative viability is 0.58.

And the relative viability ([20]; first compound 0.3162 µM)?
Its relative viability is 0.61.

What about the relative viability ([20]; first compound 1 µM) of the same compound?
The relative viability was 0.535.

And the relative viability ([21]; first compound 0.01 µM)?
The relative viability was 0.864.

What about the relative viability ([21]; first compound 0.03162 µM) of the same compound?
Its relative viability is 0.923.

What about the relative viability ([21]; first compound 0.1 µM) of the same compound?
The relative viability was 0.993.

And the relative viability ([21]; first compound 0.3162 µM)?
Its relative viability is 0.913.

What about the relative viability ([21]; first compound 1 µM) of the same compound?
The relative viability was 0.835.

What about the relative viability ([22]; first compound 0.01 µM) of the same compound?
The relative viability was 1.04.

And the relative viability ([22]; first compound 0.03162 µM)?
Its relative viability is 1.02.

And the relative viability ([22]; first compound 0.1 µM)?
The relative viability was 0.935.

What about the relative viability ([22]; first compound 0.3162 µM) of the same compound?
Its relative viability is 1.14.

And the relative viability ([22]; first compound 1 µM)?
Its relative viability is 0.873.
